Experimental data published in patent US7879910B1, “Compositions and methods for promoting lush hair growth” (Jan Marini Skin Research, Inc., priority 2006, dated 2011).

Key:
[1] = Metabolic conversion to the acid form [+]fluprostenol once absorbed in the body; format: in vivo, mammal; conditions: assessed by comparison of PGF2α analogs
Excerpt: In particular, the 5-Heptenamide administered to a mammal can be metabolized to produce an acid form which is a single isomer of fluprostenol, [+]fluprostenol having the structure of
Since the compound of Formula I is an amide derivative of a PGF2α analog, once absorbed, hydrolysis by enzymes in the body converts the amide back to the biologically active carboxylic acid. In particular, the 5-Heptenamide can be metabolized to [+]fluprostenol which then binds to the prostaglandin receptor with high affinity and has reduced side effects such as eye irritation and hyperemia (excess blood in vessels supplying the eye).
When absorbed in the body, is also metabolized into [+]fluprostenol. Based on extensive studies comparing the chemical structures, ocular and dermal absorption, metabolism, potency at the biological target site, toxicological and pharmacological of PGF2α analogs and derivatives, such as bimatoprost and travoprost, the inventor believes that the compound of Formula I, in particular the 5-Heptenamide, has much more balanced and favorable profiles of safety and efficacy, especially for long term chronic application to the skin. […]

[2] = Estimated margin of safety for topical use; conditions: assuming absorbed daily dosage of 0.020 μg/kg/day; relative to no-observable-adverse-effect dose in long-term laboratory toxicity tests; conservatively estimated
Excerpt: When absorbed in the body, is also metabolized into [+]fluprostenol. Based on extensive studies comparing the chemical structures, ocular and dermal absorption, metabolism, potency at the biological target site, toxicological and pharmacological of PGF2α analogs and derivatives, such as bimatoprost and travoprost, the inventor believes that the compound of Formula I, in particular the 5-Heptenamide, has much more balanced and favorable profiles of safety and efficacy, especially for long term chronic application to the skin. […] Assuming an absorbed daily dosage of 0.020 μg/kg/day, due to tightness of the outmost keratinized skin layer (the stratum corneum) which causes percutaneous permeability of most drugs 100-1000 times less than through the conjunctiva (Urtti & Salminen (1993) Survey of Opthalmology 37:435-456) and the lower hydrolysis rate of the 5-Heptenamide than travoprost, the margin of safety for 5-Heptenamide is conservatively estimated to be about 71,000, which means normal use of the composition delivers a dose that is less than about one 71,000th the no-observable-adverse-effect dose in long-term laboratory toxicity tests.
Traditionally, a margin of safety of 100 (10 for interspecies extrapolation, and 10 for […]) is considered adequate. […]

| SMILES | conversion to [+]fluprostenol (acid form) [1] | margin of safety [2] |
| --- | --- | --- |
| CC(C)OC(=O)CCC/C=C\C[C@@H]1[C@@H](/C=C/[C@@H](O)COc2cccc(C(F)(F)F)c2)[C@H](O)C[C@@H]1O [travoprost, Travoprost, reference compound] | essentially completely converted | – |
| CCNC(=O)CCC/C=C\C[C@@H]1[C@H](/C=C/[C@@H](O)COc2cccc(C(F)(F)F)c2)[C@H](O)C[C@@H]1O (relative stereo) [5-Heptenamide, 5-Heptenamide, 7-(3,5-dihydroxy-2-(3-hydroxy-4-(3-(trifluoromethyl)phenoxy)-1-butenyl)cyclopentyl)-, N-ethyl, (1R-(1alpha(Z), 2beta(1E,3R*), 3alpha, 5alpha)] | not as quantitatively converted to the acid form | about 71,000 |
